Tests used:
Assay type in all cases: functional
[1] = Antiproliferative activity against human HeLa cells after 48 hrs by SRB assay
[2] = Antiproliferative activity against human PANC1 cells after 48 hrs by SRB assay; conditions: PANC-1, 48 h
[3] = Antiproliferative activity against human MDA-MB-231 cells after 48 hrs by SRB assay; conditions: MDA-MB-231, 48 h

| SMILES | GI50 ([1]; read-out: GI50) | GI50 ([1]; read-out: pGI50 (converted)) | GI50 ([2]; read-out: GI50) | GI50 ([2]; read-out: pGI50 (converted)) | GI50 ([3]; read-out: GI50) | GI50 ([3]; read-out: pGI50 (converted)) |
| --- | --- | --- | --- | --- | --- | --- |
| Cn1c(=O)c(C(=O)NCCC(=O)N2CCN(c3ccc([N+](=O)[O-])cc3)CC2)c(O)c2ccccc21 | 940 nM | 940 nM | 420 nM | 420 nM | 300 nM | 300 nM |
| Cn1c(=O)c(C(=O)NCCC(=O)N2CCN(c3ccc(C(F)(F)F)cc3)CC2)c(O)c2ccccc21 | 3700 nM | 3700 nM | 2550 nM | 2550 nM | 5400 nM | 5400 nM |
| CCN1CCN(C(=O)CCNC(=O)c2c(O)c3ccccc3n(C)c2=O)CC1 | 880 nM | 880 nM | 480 nM | 480 nM | 1320 nM | 1320 nM |
| Cn1c(=O)c(C(=O)NCCC(=O)N2CCSCC2)c(O)c2ccccc21 | 3000 nM | 3000 nM | 1910 nM | 1910 nM | 2250 nM | 2250 nM |
| Cn1c(=O)c(C(=O)NCCC(=O)N2CCCCC2)c(O)c2ccccc21 | 820 nM | 820 nM | 150 nM | 150 nM | 1400 nM | 1400 nM |
| COc1cccc(N2CCN(C(=O)CCNC(=O)c3c(O)c4ccccc4n(C)c3=O)CC2)c1 | 730 nM | 730 nM | 510 nM | 510 nM | 1300 nM | 1300 nM |
| CN1CCN(C(=O)CCNC(=O)c2c(O)c3ccccc3n(C)c2=O)CC1 | 1160 nM | 1160 nM | 1660 nM | 1660 nM | 590 nM | 590 nM |
| COc1ccc(C[C@@H](O)c2cc(OC)c(OC)c(OC)c2)cc1O [COMBRETASTATIN] | 83 nM | 83 nM | 59 nM | 59 nM | 90 nM | 90 nM |
| Cn1c(=O)c(C(=O)NCCC(=O)N2CCN(Cc3ccccc3)CC2)c(O)c2ccccc21 | 760 nM | 760 nM | 950 nM | 950 nM | 510 nM | 510 nM |
| COc1ccccc1N1CCN(C(=O)CCNC(=O)c2c(O)c3ccccc3n(C)c2=O)CC1 | 740 nM | 740 nM | 700 nM | 700 nM | 1200 nM | 1200 nM |
| COC(=O)Nc1nc2cc(C(=O)c3cccs3)ccc2[nH]1 [NOCODAZOLE] | < 10 nM | – | < 10 nM | – | < 10 nM | – |
| Cn1c(=O)c(C(=O)NCCC(=O)N2CCN(c3ccccc3F)CC2)c(O)c2ccccc21 | 960 nM | 960 nM | 2500 nM | 2500 nM | 1700 nM | 1700 nM |
| Cn1c(=O)c(C(=O)NCCC(=O)N2CCC(Cc3ccccc3)CC2)c(O)c2ccccc21 | 1400 nM | 1400 nM | 680 nM | 680 nM | 710 nM | 710 nM |
| Cn1c(=O)c(C(=O)NCCC(=O)N2CCN(c3ccccc3)CC2)c(O)c2ccccc21 | 3900 nM | 3900 nM | 1570 nM | 1570 nM | 1620 nM | 1620 nM |
